Calls of active or inactive are those of the source. No cut-off for these calls is given here.
Columns and labels:
[1] = AUC (0 to t) in male ICR mouse at 10 mg/kg, ip measured upto 480 mins by LC-MS/MS analysis; format: ADME, organism-based; settings: in vivo
[2] = Cmax in male ICR mouse at 10 mg/kg, ip measured upto 480 mins by LC-MS/MS analysis; format: ADME, organism-based; settings: in vivo
Mus musculus [3] = organism: Mus musculus; settings: ICR, dose 6-24 mg/kg, route ip, time 2.0 weeks
Description: In vivo inhibition of ASM in ip dosed ICR mouse model of chronic unpredictable mild stress assessed as reduction in ASM activity in hippocampus administered once a day for 1 week post 8 week of chronic unpredictable mild stress and measured after 1 week by fluorescence based analysis

[4] = Metabolic stability in human liver microsomes assessed as half life at 1 uM incubated for 60 mins by LC-MS/MS analysis; format: ADME, Microsome
Mus musculus [5] = assay: Antidepressant activity in ICR mouse model of chronic unpredictable mild stress assessed as reduction in sphingomyelin level in cerebral cortex at 6 to 12 mg/kg, ip administered once a day for 1 week post 8 week of chronic unpredictable mild stress and measured after 1 week by ELISA; format: functional, organism-based; settings: dose 6-12 mg/kg, time 2.0 weeks
Mus musculus [6] = assay: Antidepressant activity in ICR mouse model of chronic unpredictable mild stress assessed as reduction in sphingomyelin level in hippocampus at 12 mg/kg, ip administered once a day for 1 week post 8 week of chronic unpredictable mild stress and measured after 1 week by ELISA; format: functional, organism-based; settings: time 2.0 weeks
[7] = Observed apparent volume of distribution in male ICR mouse at 1 mg/kg, iv measured upto 480 mins by LC-MS/MS analysis; format: ADME, organism-based; settings: in vivo, 8 h
[8] = Ratio of drug concentration in male ICR mouse brain to plasma at 1 mg/kg, iv measured after 60 mins by LC-MS/MS analysis; format: ADME, organism-based; settings: read-out: BPR
Mus musculus [9] = organism: Mus musculus; settings: ICR, dose 6-12 mg/kg, route ip, time 2.0 weeks
Description: In vivo inhibition of ASM in ICR mouse model of chronic unpredictable mild stress assessed as increase in 5-HT uptake in hippocampus at 6 to 12 mg/kg, ip administered once a day for 1 week post 8 week of chronic unpredictable mild stress and measured after 1 week by ELISA

SH-SY5Y [10] = assay: Neuroprotective activity against corticosterone induced human SH-SY5Y cells assessed as protection against corticosterone induced cell damage measured after 24 hrs by CCK-8 assay; format: functional, cell-based; settings: dose 5-20 µM
Mus musculus [11] = assay: Antidepressant activity in ICR mouse model of chronic unpredictable mild stress assessed as downregulation of neuronal apoptosis by measuring increase in BDNF protein level in hippocampus at 6 to 24 mg/kg, ip administered once a day for 1 week post 8 week of chronic unpredictable mild stress and measured after 1 week by Western blot analysis; format: functional, organism-based; settings: dose 6-24 mg/kg, time 2.0 weeks
Mus musculus [12] = assay: Antineuroinflammatory activity in ip dosed ICR mouse model of chronic unpredictable mild stress assessed as reduction in IL-6 level in serum administered once a day for 1 week post 8 week of chronic unpredictable mild stress and measured after 1 week by ELISA; format: functional, organism-based; settings: dose 6-12 mg/kg, time 2.0 weeks
Mus musculus [13] = assay: Antidepressant activity in ip dosed ICR mouse model of chronic unpredictable mild stress assessed as reduction in sphingosine-1-phosphate level in hippocampus administered once a day for 1 week post 8 week of chronic unpredictable mild stress and measured after 1 week by ELISA; format: functional, organism-based; settings: dose 6-12 mg/kg, time 2.0 weeks
Mus musculus [14] = assay: Improvement in depression-like behavior in ip dosed ICR mouse model of chronic unpredictable mild stress assessed as improvement in sugar consumption administered once a day for 10 days post 8 week of chronic unpredictable mild stress by sugar preference test; format: functional, organism-based; settings: dose 6-24 mg/kg, time 10.0 day
[15] = Tmax in male ICR mouse at 1 mg/kg, iv measured upto 480 mins by LC-MS/MS analysis; format: ADME, organism-based; settings: in vivo
Mus musculus [16] = assay: Antineuroinflammatory activity in ip dosed ICR mouse model of chronic unpredictable mild stress assessed as reduction in IL-1beta level in serum administered once a day for 1 week post 8 week of chronic unpredictable mild stress and measured after 1 week by ELISA; format: functional, organism-based; settings: dose 6-12 mg/kg, time 2.0 weeks
Mus musculus [17] = assay: Antidepressant activity in ICR mouse model of chronic unpredictable mild stress assessed as reduction in sphingomyelin level in hippocampus at 6 to 12 mg/kg, ip administered once a day for 1 week post 8 week of chronic unpredictable mild stress and measured after 1 week by ELISA; format: functional, organism-based; settings: dose 6-12 mg/kg, time 2.0 weeks
[18] = Ratio of drug concentration in male ICR mouse brain to plasma at 1 mg/kg, iv measured after 30 mins by LC-MS/MS analysis; format: ADME, organism-based; settings: read-out: BPR
[19] = AUC (0 to t) in male ICR mouse at 1 mg/kg, iv measured upto 480 mins by LC-MS/MS analysis; format: ADME, organism-based; settings: in vivo
Mus musculus [20] = assay: Antidepressant activity in ICR mouse model of chronic unpredictable mild stress assessed as downregulation of neuronal apoptosis by measuring improvement in Bcl-2/Bax ratio in hippocampus at 6 to 24 mg/kg, ip administered once a day for 1 week post 8 week of chronic unpredictable mild stress and measured after 1 week by Western blot analysis; format: functional, organism-based; settings: dose 6-24 mg/kg, time 2.0 weeks
[21] = Half life in male ICR mouse at 10 mg/kg, ip measured upto 480 mins by LC-MS/MS analysis; format: ADME, organism-based; settings: in vivo
[22] = Neurotoxicity against human SH-SY5Y cells assessed as reduction in cell viability at 5 to 20 uM by CCK-8 assay; format: toxicity, cell-based; settings: dose 5-20 µM
[23] = Drug concentration in male ICR mouse plasma at 1 mg/kg, iv measured after 30 mins by LC-MS/MS analysis; format: ADME, organism-based
[24] = Metabolic stability in human liver microsomes assessed as intrinsic clearance at 1 uM incubated for 60 mins by LC-MS/MS analysis; format: ADME, Microsome; settings: read-out: CLH
[25] = Observed MRT (0 to infinity) in male ICR mouse at 10 mg/kg, ip measured upto 480 mins by LC-MS/MS analysis; format: ADME, organism-based; settings: in vivo
[26] = Drug concentration in male ICR mouse brain at 1 mg/kg, iv measured after 60 mins by LC-MS/MS analysis; format: ADME, organism-based; settings: read-out: Ct
[27] = AUC (0 to infinity) in male ICR mouse at 10 mg/kg, ip measured upto 480 mins by LC-MS/MS analysis; format: ADME, organism-based; settings: in vivo
[28] = Observed clearance in male ICR mouse at 1 mg/kg, iv measured upto 480 mins by LC-MS/MS analysis; format: ADME, organism-based; settings: in vivo, 8 h
[29] = Observed MRT (0 to infinity) in male ICR mouse at 1 mg/kg, iv measured upto 480 mins by LC-MS/MS analysis; format: ADME, organism-based; settings: in vivo
[30] = Drug concentration in male ICR mouse brain at 1 mg/kg, iv measured after 30 mins by LC-MS/MS analysis; format: ADME, organism-based; settings: read-out: Ct
[31] = AUC (0 to infinity) in male ICR mouse at 1 mg/kg, iv measured upto 480 mins by LC-MS/MS analysis; format: ADME, organism-based; settings: in vivo, 8 h
SH-SY5Y [32] = assay: Neuroprotective activity against corticosterone induced human SH-SY5Y cells assessed as protection against corticosterone induced morphological changes measured after 24 hrs; format: functional, cell-based; settings: dose 5-20 µM
[33] = Cmax in male ICR mouse at 1 mg/kg, iv measured upto 480 mins by LC-MS/MS analysis; format: ADME, organism-based; settings: in vivo
[34] = Drug concentration in male ICR mouse plasma at 1 mg/kg, iv measured after 60 mins by LC-MS/MS analysis; format: ADME, organism-based
Mus musculus [35] = assay: Antidepressant activity in ip dosed ICR mouse model of chronic unpredictable mild stress assessed as reduction in oxidative stress by measuring increase in GSH level in cerebral cortex administered once a day for 1 week post 8 week of chronic unpredictable mild stress and measured after 1 week by ELISA; format: functional, organism-based; settings: dose 6-12 mg/kg, time 2.0 weeks
[36] = Half life in male ICR mouse at 1 mg/kg, iv measured upto 480 mins by LC-MS/MS analysis; format: ADME, organism-based; settings: in vivo, 8 h

## O=C(NO)c1cc(-c2ccc(Br)cc2)n(-c2ccc(Cl)cc2)n1
[1]
  AUC(0-t) at 8 h: 3640 ng·h/mL
[2]
  Cmax: 4200 ng/mL
Mus musculus [3]
  inhibition: Dose-Dependent Effect
[4]
  half-life at 1 µM: 111 min
Mus musculus [5]
  Activity: Active
Mus musculus [6]
  Activity: Active
[7]
  Vz: 3.29201 L/kg
[8]
  Kp at 1 h: 0.57
Mus musculus [9]
  inhibition: Active
SH-SY5Y [10]
  Activity: Dose-Dependent Effect
Mus musculus [11]
  Activity: Active
Mus musculus [12]
  Activity: Dose-Dependent Effect
Mus musculus [13]
  Activity: Dose-Dependent Effect
Mus musculus [14]
  Activity: Active
[15]
  Tmax: 15 min
Mus musculus [16]
  Activity: Dose-Dependent Effect
Mus musculus [17]
  Activity: Active
[18]
  Kp at 0.5 h: 0.37
[19]
  AUC(0-t) at 8 h: 921 ng·h/mL
Mus musculus [20]
  Activity: Active
[21]
  half-life: 50.4 min
[22]
  Activity: Non-Toxic
[23]
  concentration at 0.5 h: 223 ng/mL
[24]
  microsomal CLint at 1 µM: 15.6 µL/min/mg
[25]
  MRT inf: 52.8 min
[26]
  concentration at 1 h: 31.9 ng/mL
[27]
  AUC(0-inf): 3650 ng·h/mL
[28]
  CL: 45.8798 mL/min/kg
[29]
  MRT inf: 15 min
[30]
  concentration at 0.5 h: 83.1 ng/mL
[31]
  AUC: 928.07 ng·h/mL
SH-SY5Y [32]
  Activity: Dose-Dependent Effect
[33]
  Cmax: 2590 ng/mL
[34]
  concentration at 1 h: 55.6 ng/mL
Mus musculus [35]
  Activity: Dose-Dependent Effect
[36]
  t1/2: 18.6 min

Source: ChEMBL document CHEMBL5512696, “Discovery of a Novel ASM Direct Inhibitor with a 1,5-Diphenyl-pyrazole Scaffold and Its Antidepressant Mechanism of Action” (J Med Chem, 2024)
